Consider six molecules from PubChem BioAssay AID2060343 (Molecular Pharmacology Branch, DTP, NCI, 2025).

The subject of the experiment is 138582-337-R-J1-PDC spheroids with HUVEC/MSC, viability. Put plainly: Anticancer human tumor 138582-337-R-J1-PDC patient-derived Merkel cell tumor cell line growth inhibition [IpAb]. The following applies: for viability, T/C: stronger effect = lower value. The procedure, abridged:
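Spheroids of 60% malignant cells, 25% HUVEC and 15% MSC were exposed to targeted agents combined with ipatasertib or abemaciclib. Doses started at or near clinical Cmax (10 microM when unknown) and fell in half-log steps.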

[1] abbreviates: curve of first compound, second compound 0.1 µM.
Setting [2] is: curve of first compound, second compound 0.316 µM.
Where [3] appears, read: curve of first compound, second compound 1 µM.
[4] abbreviates: second compound 0.1 µM, first compound 0.0316 µM.
The mark [5] stands for this setting: second compound 0.1 µM, first compound 0.1 µM.
[6] abbreviates: second compound 0.1 µM, first compound 0.316 µM.
Where [7] appears, read: second compound 0.1 µM, first compound 1 µM.
[8] abbreviates: second compound 0.1 µM, first compound 3.16 µM.
The mark [9] stands for this setting: second compound 0.1 µM, first compound 10 µM.
Where [10] appears, read: second compound 0.316 µM, first compound 0.0316 µM.
Where [11] appears, read: second compound 0.316 µM, first compound 0.1 µM.
Setting [12] is: second compound 0.316 µM, first compound 0.316 µM.
Where [13] appears, read: second compound 0.316 µM, first compound 1 µM.
[14] abbreviates: second compound 0.316 µM, first compound 3.16 µM.
[15] abbreviates: second compound 0.316 µM, first compound 10 µM.
Where [16] appears, read: second compound 1 µM, first compound 0.0316 µM.
The mark [17] stands for this setting: second compound 1 µM, first compound 0.1 µM.
The mark [18] stands for this setting: second compound 1 µM, first compound 0.316 µM.
Setting [19] is: second compound 1 µM, first compound 1 µM.
[20] abbreviates: second compound 1 µM, first compound 3.16 µM.
The mark [21] stands for this setting: second compound 1 µM, first compound 10 µM.
Setting [22] is: curve of first compound, second compound 0.01 µM.
Where [23] appears, read: curve of first compound, second compound 0.0316 µM.
[24] abbreviates: second compound 0.01 µM, first compound 0.0316 µM.
[25] abbreviates: second compound 0.01 µM, first compound 0.1 µM.
The mark [26] stands for this setting: second compound 0.0316 µM, first compound 0.0316 µM.
The mark [27] stands for this setting: second compound 0.0316 µM, first compound 0.1 µM.

pIC50: −log10 of the molar value. Several values for one entry are separate records, joined by “and”; a condition that tells them apart may be missing. Equal entries are not always repeated.

The pIC50 is −log10 of the IC50, conventionally taken in molar units. By viability, T/C is commonly meant the ratio of treated to control.
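Note: spheroids exposed to compounds for seven days.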
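Throughout, for viability, T/C: 100% = DMSO vehicle control viability.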

`Cn1nccc1Nc1nccc(-c2ccn(C(CO)c3ccc(Cl)c(F)c3)c(=O)c2)n1` (stereo not given) + CC(C)NCC(C(=O)N1CCN(c2ncnc3c2C(C)CC3O)CC1)c1ccc(Cl)cc1: the pIC50 was less than 5.00 under setting [1]; less than 5.00 under setting [2]; 5.77 under setting [3]; 6.80 (curve of first compound, second compound 3.16 µM); more than 7.50 (curve of first compound, second compound 10 µM). Also, the viability, T/C was 104% under setting [4]; 88.8% under setting [5]; 91.8% under setting [6]; 100% under setting [7]; 108% under setting [8]; 124% under setting [9]. Moreover, the viability, T/C runs as follows: under setting [10], 82.8%; under setting [11], 82.8%; under setting [12], 77%; under setting [13], 73.5%; under setting [14], 75.8%; under setting [15], 70%. For the same molecule, the viability, T/C reads like this: under setting [16], 68.2%; under setting [17], 70.5%; under setting [18], 67.6%; under setting [19], 51.4%; under setting [20], 44.8%; under setting [21], 17.1%. Moreover, the viability, T/C runs as follows: (second compound 3.16 µM, first compound 0.0316 µM) 47.4%; (second compound 3.16 µM, first compound 0.1 µM) 55.1%; (second compound 3.16 µM, first compound 0.316 µM) 48.8%; (second compound 3.16 µM, first compound 1 µM) 38.8%; (second compound 3.16 µM, first compound 3.16 µM) 19.9%; (second compound 3.16 µM, first compound 10 µM) 4.47%. Besides, the viability, T/C was 45.9% (second compound 10 µM, first compound 0.0316 µM); 47.5% (second compound 10 µM, first compound 0.1 µM); 34.2% (second compound 10 µM, first compound 0.316 µM); 22.8% (second compound 10 µM, first compound 1 µM); 6.51% (second compound 10 µM, first compound 3.16 µM); 1.06% (second compound 10 µM, first compound 10 µM).

As for `CC(C)n1nc(-c2ccc3oc(N)nc3c2)c2c(N)ncnc21` + CCN1CCN(Cc2ccc(Nc3ncc(F)c(-c4cc(F)c5nc(C)n(C(C)C)c5c4)n3)nc2)CC1, the pIC50 reads like this: under setting [22], 7.22; under setting [23], 7.57; under setting [1], 7.28; under setting [2], less than 7.00; under setting [3], 7.16. For the same molecule, the viability, T/C reads like this: (second compound 0.01 µM, first compound 0.000316 µM) 102%; (second compound 0.01 µM, first compound 0.001 µM) 88%; (second compound 0.01 µM, first compound 0.00316 µM) 73.4%; (second compound 0.01 µM, first compound 0.01 µM) 76.5%; under setting [24], 58.2%; under setting [25], 42.2%. Also, the viability, T/C (second compound 0.0316 µM, first compound 0.000316 µM) is 88%; the viability, T/C (second compound 0.0316 µM, first compound 0.001 µM) was 74.5%; the viability, T/C (second compound 0.0316 µM, first compound 0.00316 µM) is 90.8%; the viability, T/C (second compound 0.0316 µM, first compound 0.01 µM) was 71%; the viability, T/C under setting [26] is 47.5%; the viability, T/C under setting [27] is 38.7%. Moreover, the viability, T/C (second compound 0.1 µM, first compound 0.000316 µM) was 93.6%; the viability, T/C (second compound 0.1 µM, first compound 0.001 µM) is 88.4%; the viability, T/C (second compound 0.1 µM, first compound 0.00316 µM) was 78.8%; the viability, T/C (second compound 0.1 µM, first compound 0.01 µM) was 68.1%; the viability, T/C under setting [4] is 55.1%; the viability, T/C under setting [5] is 43.6%. Besides, the viability, T/C is, setting by setting: (second compound 0.316 µM, first compound 0.000316 µM) 96.5%; (second compound 0.316 µM, first compound 0.001 µM) 96.6%; (second compound 0.316 µM, first compound 0.00316 µM) 80%; (second compound 0.316 µM, first compound 0.01 µM) 56.5%; under setting [10], 53.2%; under setting [11], 50.2%. The viability, T/C (second compound 1 µM, first compound 0.000316 µM) was 88.8%; the viability, T/C (second compound 1 µM, first compound 0.001 µM) is 93.5%; the viability, T/C (second compound 1 µM, first compound 0.00316 µM) is 82.6%; the viability, T/C (second compound 1 µM, first compound 0.01 µM) was 61.3%; the viability, T/C under setting [16] is 52.1%; the viability, T/C under setting [17] was 48.6%.

Consider `CCN1CCN(Cc2ccc(Nc3ncc(F)c(-c4cc(F)c5nc(C)n(C(C)C)c5c4)n3)nc2)CC1`, for which the viability, T/C reads like this: (compound 0.01 µM) 96.6% [middle of 13 runs]; (compound 0.0316 µM) 90.6% [middle of 13 runs]; (compound 0.1 µM) 90.9% [middle of 13 runs]; (compound 0.316 µM) 90.5% [middle of 13 runs]; (compound 1 µM) 96.4% [middle of 13 runs]. Besides, the negative-log IC50 (pIC50) (compound alone, run of 05/18/2021) was less than 6.00.

Consider `Cn1cnc2c(F)c(Nc3ccc(Br)cc3Cl)c(C(=O)NOCCO)cc21`, for which the viability, T/C by setting is: (compound 0.00949 µM) 112% and 90.1%; (compound 0.03 µM) 96.5% and 82.8%; (compound 0.0949 µM) 98.2% and 82.7%; (compound 0.3 µM) 116% and 84%; (compound 0.949 µM) 109% and 97.7%; (compound 3 µM) 146% and 106%. The negative-log IC50 (pIC50) (curve of compound) was less than 5.52.

As to `Cn1ncc(Cl)c1-c1cc(C(=O)NC(CN)Cc2cccc(F)c2)sc1Cl` (stereo not given), the viability, T/C by setting is: (compound 0.0316 µM) 89.5% and 99.6%; (compound 0.1 µM) 80.9% and 77%; (compound 0.316 µM) 86.6% and 67.6%; (compound 1 µM) 72.8% and 61.9%; (compound 3.16 µM) 66.4% and 46%; (compound 10 µM) 0.28% and 0.56%. Moreover, the pIC50 (curve of compound) was 5.39 and 5.76.

For the molecule `CC1(C)CCC(CN2CCN(c3ccc(C(=O)NS(=O)(=O)c4ccc(NCC5CCOCC5)c([N+](=O)[O-])c4)c(Oc4cnc5[nH]ccc5c4)c3)CC2)=C(c2ccc(Cl)cc2)C1` + CCN1CCN(Cc2ccc(Nc3ncc(F)c(-c4cc(F)c5nc(C)n(C(C)C)c5c4)n3)nc2)CC1, the pIC50 reads like this: under setting [22], less than 5.00; under setting [23], less than 5.00; under setting [1], less than 5.00; under setting [2], less than 5.00; under setting [3], less than 5.00. The viability, T/C runs as follows: under setting [24], 90.6%; under setting [25], 83.3%; (second compound 0.01 µM, first compound 0.316 µM) 79.3%; (second compound 0.01 µM, first compound 1 µM) 83.7%; (second compound 0.01 µM, first compound 3.16 µM) 75.1%; (second compound 0.01 µM, first compound 10 µM) 83.2%. In addition, the viability, T/C under setting [26] is 93.3%; the viability, T/C under setting [27] is 86.7%; the viability, T/C (second compound 0.0316 µM, first compound 0.316 µM) was 86.4%; the viability, T/C (second compound 0.0316 µM, first compound 1 µM) was 78.5%; the viability, T/C (second compound 0.0316 µM, first compound 3.16 µM) is 83.3%; the viability, T/C (second compound 0.0316 µM, first compound 10 µM) is 82.9%. Besides, the viability, T/C was 86.5% under setting [4]; 79% under setting [5]; 85% under setting [6]; 80% under setting [7]; 86.4% under setting [8]; 89.5% under setting [9]. Also, the viability, T/C under setting [10] is 85%; the viability, T/C under setting [11] was 90.7%; the viability, T/C under setting [12] is 81.7%; the viability, T/C under setting [13] is 86.8%; the viability, T/C under setting [14] is 90.8%; the viability, T/C under setting [15] is 106%. Moreover, the viability, T/C is 88.4% under setting [16]; 86.3% under setting [17]; 75.1% under setting [18]; 81% under setting [19]; 83.7% under setting [20]; 109% under setting [21].
